In patent publication US20160159861A1, “APJ Receptor Compounds” (priority 2013, published 2016):
Read-outs that look alike come from different tables or passages of the source. Peptide text beside a SMILES is read from it.

Tests used:
[1] = molecular target: T1, human APJ receptor (hAPJ) (Homo sapiens, UniProt P35414); experiment: HTRF cAMP assay: inhibition of NKH477-stimulated cAMP in HEK cells stably expressing hAPJ; type: cell-based; conditions: for Emax: HEK293, read-out: % IA, bound stated; for % IA (cAMP inhibition, hAPJ HEK): intrinsic activity; for Ranking: composite class of EC50 (hAPJ), % IA and % histamine or formal (+) charge; for inhibition of NKH477-stimulated increase in cAMP, dose dependent: concentration response curves, FIGS. 1 and 2, HEK cells stably expressing APJ
T1 construct: expressed in transfected cells
T1 sequence (P35414 1-380): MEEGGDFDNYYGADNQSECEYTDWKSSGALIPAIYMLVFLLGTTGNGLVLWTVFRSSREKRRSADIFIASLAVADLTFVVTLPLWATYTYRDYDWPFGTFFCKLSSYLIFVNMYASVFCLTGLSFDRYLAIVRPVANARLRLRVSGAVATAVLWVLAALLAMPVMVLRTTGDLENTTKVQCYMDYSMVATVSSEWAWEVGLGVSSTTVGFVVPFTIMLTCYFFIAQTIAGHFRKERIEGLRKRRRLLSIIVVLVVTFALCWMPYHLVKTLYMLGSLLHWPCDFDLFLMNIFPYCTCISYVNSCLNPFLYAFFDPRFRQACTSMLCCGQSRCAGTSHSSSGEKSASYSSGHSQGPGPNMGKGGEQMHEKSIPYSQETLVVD
Method in brief: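 HEK cells stably expressing hAPJ, induced with 1 nG/mL doxycycline and seeded overnight at 40 k/well. cAMP read by HTRF competitive immunoassay using cryptate-labeled anti-cAMP antibody and d2-labeled cAMP.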

rat peritoneal cells = experiment: Ex vivo histamine release assay in rat peritoneal cells (vs. Compound 48/80); type: cell-based
Description: More desirable pharmacological tolerability can include a decrease in an undesirable side effect (e.g., histamine release, an indicator of mast cell degranulation) without a significant loss in activity of the compound.
Screening of the variant G protein receptor compounds against a control compound for histamine release can be done following standard assays. The standard assay can include comparison to a control compound known to elicit a histamine response (e.g., 48/80 having CAS No. 94724-12-6). Such an assay using rat peritoneal cells is described herein for the APJ compounds.
Test compounds were assayed in the ex vivo histamine release assay using a 3-point dose response. Concentrations of total histamine contained in the cells is used to correct for variability in the numbers of mast cells in the lavage per well.
Resident peritoneal cells were harvested from naïve Sprague Dawley rats (male 200-300 gr, Charles River). Rats were euthanized by CO2 asphyxiation and a skin incision was made along the middle-line of the abdomen. Thirty milliliters of HBSS (HyClone, cat#SH 30268.01) containing 20 mM HEPES and 0.2% BSA (heretofore Assay Buffer) were injected intraperitoneally using a 30 mL syringe with the attached 18 gauge needle. The abdomen was gently lavaged for 1-2 min and 7-10 milliliters of the peritoneal lavage were carefully aspirated. Cell count in the peritoneal lavage was determined using Cellometer Auto T4 (Nexcelom Bioscience). The peritoneal cell count was adjusted to […] cells/mL in Assay Buffer. Rat peritoneal cells were kept at room temperature before and during the assay.
For the 10-point assay, 3-fold serial dilutions were prepared for each test compound in 100% DMSO in 96-well plates (Greiner Bio One, Ref#651261)—from 100 μM down to […]. For the 3-point assay, 10-fold serial dilutions were prepared in 100% DMSO at 100 μM, 10 μM and 1 μM concentrations. From this plate, 5 μL of compound were transferred to a new plate containing 45 μL Assay Buffer to generate a compound plate with 10× final concentrations in 10% DMSO with Assay Buffer. In the final plates, column 11 contained 1% DMSO for the low-histamine-releasing control.
Suspensions of the rat peritoneal cells (90 μL of 2.75×10^5 cells/mL; →25,000 cells per well) were introduced into each well of a new 96-well microtiter plate (Greiner Bio One, Ref#651261) and 10 μL aliquots of the serially diluted compounds were transferred to the cells in each well. The microtiter plate was incubated for 30 min at room temperature. Following incubation cells were spun down (500 rpm, 7 min) and supernatants were collected for further analysis. Supernatants were diluted 6 times with the assay buffer (15 μL to 75 μL, for 90 μL total) and released histamine content was determined using HTRF® Histamine assay kit (CisBio, cat#62HTMPEB). To measure the total histamine in each well, cells were lysed by addition of 15 μL 5% TritonX-100 to each well followed by incubation for 15 minutes. The plates were then spun at 3000 rpm for 5 minutes, and 10 μL of supernatant were diluted 9-fold in assay buffer (10 μL to 80 μL for 90 μL total) to make the “total” histamine plate. Histamine content was measured as described above for the “released” histamine values.
The standard positive control was Compound 48/80 (Enzo Life Sciences), a oligomeric polymer mixture produced by the condensation of N-methyl-p-methoxyphenethylamine with formaldehyde. The trimer is the most abundant in the mixture Compound 48/80 is used to promote mast cell degranulation and activates G proteins by a mechanism analogous to that of mastoparan. […] See references: T. Higashijima et al., J. Biol., Chem., 265 14176 (1990); M. Mousli et al., FEBS Lett., 259 260 (1990); K. Gietzen et al., Biochim. Biophys. Acta, 736 109 (1983); K. Gietzen, Biochem. J., 1983 216 611 and C. Bronner et al., Biochim. Biophys. Acta, 920 301(1987).

[2] = HTRF cAMP Assay, per data of Table 6
[3] = HTRF cAMP Assay, per data of Table 6, read-out: EC50 (hAPJ), inhibition of cAMP production, bound stated
[4] = Table 6, hAPJ HEK cells, NKH477-stimulated cAMP, read-out: EC50 (cAMP inhibition, hAPJ HEK)

Emax [1, 2] [%] | EC50 [1, 3] [nM] | EC50 [1, 4] [nM] | % IA (cAMP inhibition, hAPJ HEK) ([1]; Table 6, hAPJ HEK cells) [%] | inhibition of NKH477-stimulated increase in cAMP, dose dependent [1] | Histamine (% vs. 48/80) (rat peritoneal cells) [%] | SMILES | Ranking [1]
≥ 80 | ≤ 25 | 24 | 111 | inhibited | 1 | CCCCCCCCCCCCCCCC(=O)N[C@@H](CC(=O)O)C(=O)N[C@H](C(=O)N[C@@H](Cc1ccccc1)C(=O)N[C@@H](CCC(N)=O)C(=O)N[C@@H](CO)C(=O)N[C@@H](CCC(=O)O)C(=O)N[C@H](CCCCN)C(=O)N[C@@H](CCCNC(=N)N)C(=O)N[C@@H](CCCNC(=N)N)C(=O)N[C@@H](CO)C(=O)N[C@@H](C)C(=O)N[C@@H](CC(=O)O)C(=O)N[C@@H](CCC(N)=O)C(=O)N[C@@H](Cc1ccccc1)C(=O)N[C@H](C(N)=O)[C@@H](C)CC)C(C)C [Compound 17] (HELM PEPTIDE1{[CCCCCCCCCCCCCCCC(=O)[*:2]].D.V.F.Q.S.E.[dK].R.R.S.A.D.Q.F.I.[am]}$$$$V2.0) | ***** (EC50≦25 nM (hAPJ), % IA≧80% and either % histamine≦35% or formal (+) charge≦1)
 |  | 17 | 47 |  | 60 | CCCCCCCCCCCCCCCC(=O)N[C@H](C(=O)N[C@H](C(=O)N[C@@H](Cc1ccccc1)C(=O)N[C@@H](CCCNC(=N)N)C(=O)N[C@@H](CO)C(=O)N1CCC[C@H]1C(=O)N[C@@H](CO)C(=O)N[C@@H](CCC(=O)O)C(=O)N[C@H](CCCCN)C(=O)N[C@@H](CCCNC(=N)N)C(=O)N[C@@H](CCCNC(=N)N)C(=O)N1CCC[C@H]1C(=O)N[C@@H](CO)C(=O)N[C@@H](C)C(=O)N[C@@H](CC(=O)O)C(=O)N[C@H](C(=O)N[C@@H](Cc1ccccc1)C(N)=O)[C@@H](C)CC)C(C)C)[C@@H](C)O [Compound 22] (HELM PEPTIDE1{[CCCCCCCCCCCCCCCC(=O)[*:2]].T.V.F.R.S.P.S.E.[dK].R.R.P.S.A.D.I.F.[am]}$$$$V2.0) | * (EC50≦50 nM (hAPJ), % IA<50%)
 |  | 44 | 63 |  | 67 | CCCCCCCCCCCCCCCC(=O)N[C@H](C(=O)N[C@H](C(=O)N[C@@H](Cc1ccccc1)C(=O)N[C@@H](CCCNC(=N)N)C(=O)N[C@@H](CO)C(=O)N[C@@H](CO)C(=O)N1CCC[C@H]1C(=O)N[C@@H](CCC(=O)O)C(=O)N[C@H](CCCCN)C(=O)N[C@@H](CCCNC(=N)N)C(=O)N[C@@H](CCCNC(=N)N)C(=O)N[C@@H](CO)C(=O)N1CCC[C@H]1C(=O)N[C@@H](C)C(=O)N[C@@H](CC(=O)O)C(=O)N[C@H](C(=O)N[C@@H](Cc1ccccc1)C(N)=O)[C@@H](C)CC)C(C)C)[C@@H](C)O [Compound 23] (HELM PEPTIDE1{[CCCCCCCCCCCCCCCC(=O)[*:2]].T.V.F.R.S.S.P.E.[dK].R.R.S.P.A.D.I.F.[am]}$$$$V2.0) | ** (EC50 25-50 nM (hAPJ), % IA 50-79% and either % histamine>35% or formal (+) charge>1)
≥ 80 | ≤ 25 | 13 | 88 | inhibited | 54 | CCCCCCCCCCCCCCCC(=O)N[C@H](C(=O)N[C@H](C(=O)N[C@@H](Cc1ccccc1)C(=O)N[C@@H](CCCNC(=N)N)C(=O)N[C@@H](CO)C(=O)N[C@@H](CO)C(=O)N[C@@H](CCC(=O)O)C(=O)N[C@H](CCCCN)C(=O)N[C@@H](CCCNC(=N)N)C(=O)N[C@@H](CCCNC(=N)N)C(=O)N1CCC[C@H]1C(=O)N[C@@H](CO)C(=O)N[C@@H](C)C(=O)N[C@@H](CC(=O)O)C(=O)N[C@H](C(=O)N[C@@H](Cc1ccccc1)C(=O)N1CCC[C@H]1C(N)=O)[C@@H](C)CC)C(C)C)[C@@H](C)O [Compound 24] (HELM PEPTIDE1{[CCCCCCCCCCCCCCCC(=O)[*:2]].T.V.F.R.S.S.E.[dK].R.R.P.S.A.D.I.F.P.[am]}$$$$V2.0) | **** (EC50≦25 nM (hAPJ), % IA≧80% and either % histamine>35% or formal (+) charge>1)
≥ 80 | ≤ 25 | 20 | 80 | inhibited | 47 | CCCCCCCCCCCCCCCC(=O)N1CCC[C@@H]1C(=O)N[C@H](C(=O)N[C@H](C(=O)N[C@@H](Cc1ccccc1)C(=O)N[C@@H](CCCNC(=N)N)C(=O)N[C@@H](CO)C(=O)N1CCC[C@@H]1C(=O)N[C@@H](CO)C(=O)N[C@@H](CCC(=O)O)C(=O)N[C@H](CCCCN)C(=O)N[C@@H](CCCNC(=N)N)C(=O)N[C@@H](CCCNC(=N)N)C(=O)N[C@@H](CO)C(=O)N[C@@H](C)C(=O)N[C@@H](CC(=O)O)C(=O)N[C@H](C(=O)N[C@@H](Cc1ccccc1)C(N)=O)[C@@H](C)CC)C(C)C)[C@@H](C)O [Compound 29, pTVFRSpSEkRRSADIF] (HELM PEPTIDE1{[CCCCCCCCCCCCCCCC(=O)[*:2]].[dP].T.V.F.R.S.[dP].S.E.[dK].R.R.S.A.D.I.F.[am]}$$$$V2.0) | **** (EC50≦25 nM (hAPJ), % IA≧80% and either % histamine>35% or formal (+) charge>1)
≥ 80 | ≤ 25 | 16 | 86 | inhibited | 34 | CCCCCCCCCCCCCCCC(=O)N1CCC[C@H]1C(=O)N[C@H](CCCCN)C(=O)N[C@@H](CCCNC(=N)N)C(=O)N[C@@H](CCCNC(=N)N)C(=O)N[C@@H](CO)C(=O)N[C@@H](C)C(=O)N[C@@H](CC(=O)O)C(=O)N[C@H](C(=O)N[C@@H](Cc1ccccc1)C(=O)N[C@H](C(=O)N1CCC[C@H]1C(N)=O)[C@@H](C)CC)[C@@H](C)CC [Compound 30] (HELM PEPTIDE1{[CCCCCCCCCCCCCCCC(=O)[*:2]].P.[dK].R.R.S.A.D.I.F.I.P.[am]}$$$$V2.0) | ***** (EC50≦25 nM (hAPJ), % IA≧80% and either % histamine≦35% or formal (+) charge≦1)
